{"source": "patent US12103919B2", "about": "“3-(5-oxy)-1-oxoisoindolin-2-yl)piperidine-2,6-dione derivatives and uses thereof” (NOVARTIS AG, priority 2021, dated 2024)", "key": {"[1]": {"test_system": "Fetal Hemoglobin (HbF)", "assay": "Small molecule HbF induction assay in erythroid-differentiated mPB CD34+ cells (flow cytometry)", "assay_type": "cell-based, human", "conditions": "highest percentage of cells staining positive for HbF (% HbF+ cells) in fitted dose-response curve; DMSO baseline approximately 30-40%", "description": "Cryopreserved primary human CD34^+ hematopoietic stem and progenitor cells were obtained from AllCeIIs, LLC. The CD34^+ cells were isolated from the peripheral blood of healthy donors after mobilization by administration of granulocyte colony-stimulating factor. Cells were differentiated ex vivo toward the erythroid lineage using a 2-phase culture method. In the first phase, cells were cultured in Stemspan™ Serum-Free Expansion Media (SFEM) ([…] Technologies Inc.) supplemented with rhSCF (50 ng/mL, Peprotech®, Inc.), rhlL-6 (50 ng/mL, Peprotech®, Inc.), rhlL-3 (50 ng/mL, Peprotech®, Inc.), and rhFlt3L (50 ng/mL, Peprotech®, Inc.), and 1× antibiotic-antimycotic (Life Technologies, Thermo Fisher Scientific) for 6 days at 37° C. with 5% CO2. During the second phase, cells were cultured in erythroid differentiation media at 5,000 cells/mL in the presence of compound for 7 days at 37° C. with 5% […]. Erythroid Differentiation Media is comprised of IMDM (Life Technologies) supplemented with insulin (10 μg/mL. Sigma Aldrich), heparin (2 U/mL Sigma Aldrich), holo-transferrin (330 μg/mL, Sigma Aldrich), human serum AB (5%, Sigma Aldrich), hydrocortisone (1 μM, […] Technologies), rhSCF (100 ng/mL, Peprotech®, Inc.), rhIL-3 (5 ng/mL. Peprotech®, Inc.), rhEPO (3 U/mL, Peprotech®, Inc.), and 1× antibiotic-antimycotic. All compounds were dissolved and diluted into dimethylsulfoxide (DMSO) and were added to culture media for a final concentration of 0.3% DMSO for testing in a 10-point, 1:3 dilution series starting at 10 uM.\nFor viability analysis, samples were washed and resuspended in phosphate-buffered saline (PBS) and stained with LlVE/DEAD™ Fixable Violet Dead Cell Stain Kit (Life Technologies, L34963) for 20 minutes. Cells were then washed again with PBS and resuspended in PBS supplemented with 2% fetal bovine serum (FBS), and 2 mM EDTA to prepare for cell surface marker analysis. […]\nmPB CD34+ cells were expanded for 6 days, then erythroid differentiated in the presence of compound for 7 days. Cells were fixed, stained and analyzed by flow cytometry. […]"}, "[2]": {"molecular_target": "T1, WIZ (Homo sapiens, UniProt O95785+Q96SW2)", "T1 construct": "expressed in transfected cells", "T1 sequence (O95785 whole entry, the tested form may be a part)": "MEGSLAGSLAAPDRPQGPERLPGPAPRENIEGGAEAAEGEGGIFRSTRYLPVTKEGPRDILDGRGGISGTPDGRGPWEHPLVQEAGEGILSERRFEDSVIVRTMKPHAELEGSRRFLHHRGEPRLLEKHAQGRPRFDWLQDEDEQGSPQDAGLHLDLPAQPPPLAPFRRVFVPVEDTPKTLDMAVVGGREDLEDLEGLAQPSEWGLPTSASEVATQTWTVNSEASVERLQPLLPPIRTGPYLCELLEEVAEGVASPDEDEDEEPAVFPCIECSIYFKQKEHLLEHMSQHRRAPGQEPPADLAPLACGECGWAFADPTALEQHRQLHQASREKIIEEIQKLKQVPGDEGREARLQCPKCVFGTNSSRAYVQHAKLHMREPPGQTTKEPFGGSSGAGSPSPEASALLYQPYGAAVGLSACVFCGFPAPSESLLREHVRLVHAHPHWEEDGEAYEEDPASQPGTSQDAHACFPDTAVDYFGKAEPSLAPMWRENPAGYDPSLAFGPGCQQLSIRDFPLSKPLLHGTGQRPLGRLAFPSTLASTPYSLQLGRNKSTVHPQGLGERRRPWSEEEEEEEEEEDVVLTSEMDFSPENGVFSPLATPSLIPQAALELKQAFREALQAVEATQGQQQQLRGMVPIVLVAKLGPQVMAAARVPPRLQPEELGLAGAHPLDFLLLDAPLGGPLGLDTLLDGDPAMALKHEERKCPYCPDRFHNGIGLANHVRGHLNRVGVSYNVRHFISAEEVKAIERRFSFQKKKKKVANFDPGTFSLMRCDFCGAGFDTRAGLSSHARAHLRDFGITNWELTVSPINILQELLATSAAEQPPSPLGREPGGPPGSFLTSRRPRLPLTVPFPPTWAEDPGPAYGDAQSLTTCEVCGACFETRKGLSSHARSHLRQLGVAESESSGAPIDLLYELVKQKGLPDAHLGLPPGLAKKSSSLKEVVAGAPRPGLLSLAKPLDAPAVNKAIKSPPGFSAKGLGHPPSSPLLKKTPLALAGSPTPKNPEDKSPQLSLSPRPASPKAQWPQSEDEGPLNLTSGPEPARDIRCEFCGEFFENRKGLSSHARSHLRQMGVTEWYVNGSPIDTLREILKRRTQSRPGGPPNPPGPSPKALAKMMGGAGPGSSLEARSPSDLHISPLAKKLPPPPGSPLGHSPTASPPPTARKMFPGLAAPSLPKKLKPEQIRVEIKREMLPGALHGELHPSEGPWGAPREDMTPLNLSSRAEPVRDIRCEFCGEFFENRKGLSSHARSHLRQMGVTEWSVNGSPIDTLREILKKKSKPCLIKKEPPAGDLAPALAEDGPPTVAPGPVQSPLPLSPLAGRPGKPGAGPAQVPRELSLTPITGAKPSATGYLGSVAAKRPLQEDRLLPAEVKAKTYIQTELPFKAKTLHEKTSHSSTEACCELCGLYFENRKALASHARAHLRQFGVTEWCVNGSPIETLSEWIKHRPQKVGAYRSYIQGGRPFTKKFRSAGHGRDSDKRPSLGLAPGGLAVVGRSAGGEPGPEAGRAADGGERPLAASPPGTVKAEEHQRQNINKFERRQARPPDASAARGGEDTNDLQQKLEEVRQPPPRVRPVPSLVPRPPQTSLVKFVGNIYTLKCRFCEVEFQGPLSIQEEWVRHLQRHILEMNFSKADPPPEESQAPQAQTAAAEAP", "T1 sequence (Q96SW2 whole entry, the tested form may be a part)": "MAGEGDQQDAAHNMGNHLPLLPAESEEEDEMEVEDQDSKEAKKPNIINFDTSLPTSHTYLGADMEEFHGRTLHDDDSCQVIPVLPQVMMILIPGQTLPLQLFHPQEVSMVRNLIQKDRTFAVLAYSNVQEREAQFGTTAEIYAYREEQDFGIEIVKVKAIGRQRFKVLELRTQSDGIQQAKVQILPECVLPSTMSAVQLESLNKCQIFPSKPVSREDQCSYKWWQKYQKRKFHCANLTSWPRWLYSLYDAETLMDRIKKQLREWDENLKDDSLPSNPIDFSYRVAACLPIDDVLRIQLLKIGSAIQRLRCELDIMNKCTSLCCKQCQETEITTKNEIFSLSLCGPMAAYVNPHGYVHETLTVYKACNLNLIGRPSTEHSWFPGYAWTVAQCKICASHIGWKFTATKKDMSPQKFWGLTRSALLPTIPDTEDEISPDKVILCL", "T1 sequence (Q16531 whole entry partner, the tested form may be a part)": "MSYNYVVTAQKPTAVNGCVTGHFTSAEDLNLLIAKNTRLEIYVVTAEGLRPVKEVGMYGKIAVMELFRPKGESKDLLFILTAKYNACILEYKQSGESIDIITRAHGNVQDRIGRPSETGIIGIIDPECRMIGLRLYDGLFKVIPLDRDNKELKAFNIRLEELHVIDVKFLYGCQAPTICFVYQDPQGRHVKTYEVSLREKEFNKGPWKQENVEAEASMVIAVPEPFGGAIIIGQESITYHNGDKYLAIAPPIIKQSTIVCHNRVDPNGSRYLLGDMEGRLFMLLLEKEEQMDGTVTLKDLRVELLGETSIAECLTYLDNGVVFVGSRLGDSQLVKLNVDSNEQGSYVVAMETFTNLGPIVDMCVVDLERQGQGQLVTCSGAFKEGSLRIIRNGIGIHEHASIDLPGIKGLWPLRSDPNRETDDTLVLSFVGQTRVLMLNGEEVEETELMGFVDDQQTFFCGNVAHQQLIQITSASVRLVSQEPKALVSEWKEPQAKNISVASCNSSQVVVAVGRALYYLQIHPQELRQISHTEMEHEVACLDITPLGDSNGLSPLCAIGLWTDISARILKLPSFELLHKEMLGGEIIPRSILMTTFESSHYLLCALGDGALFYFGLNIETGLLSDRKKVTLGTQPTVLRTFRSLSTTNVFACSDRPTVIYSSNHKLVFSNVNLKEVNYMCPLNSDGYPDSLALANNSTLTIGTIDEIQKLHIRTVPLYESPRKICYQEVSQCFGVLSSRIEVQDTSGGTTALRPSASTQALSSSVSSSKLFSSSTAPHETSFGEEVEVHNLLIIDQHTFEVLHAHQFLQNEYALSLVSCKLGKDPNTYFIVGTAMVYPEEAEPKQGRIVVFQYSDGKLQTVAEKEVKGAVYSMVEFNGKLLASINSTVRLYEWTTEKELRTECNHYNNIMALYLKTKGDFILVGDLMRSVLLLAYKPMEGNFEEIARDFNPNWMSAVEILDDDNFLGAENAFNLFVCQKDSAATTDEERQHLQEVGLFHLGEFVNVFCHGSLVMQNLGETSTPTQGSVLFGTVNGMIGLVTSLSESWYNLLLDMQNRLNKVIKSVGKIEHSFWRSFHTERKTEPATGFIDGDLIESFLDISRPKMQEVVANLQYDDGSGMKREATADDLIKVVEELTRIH", "assay": "Quantification of WIZ protein levels in HiBit tag fusion protein assay (293T cells)", "assay_type": "cell-based", "set-up": "Dmax: dose or concentration left out as unconfirmed", "conditions": "for DC50: read-out: WIZ AC50", "summary_of_the_method": "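293T cells stably carrying a single-copy HiBit-WIZ fusion were exposed to compounds for about 18 hours at 37° C., top concentration 25 μM, 10-point 5-fold series. Lysates were complemented with LgBit and luminescence was read. Amax is the DMSO-normalized, curve-fitted percentage of WIZ-HiBit remaining at 25 uM.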"}}, "note": "Like-named read-outs stand apart in the source and are kept apart here."}
{"smiles": "CCN1CCC[C@@H](Oc2ccc3c(c2)CN(C2CCC(=O)NC2=O)C3=O)C1", "note": "(mixture of isomers) [Example 1, 3-(5-(((R)-1-ethylpiperidin-3-yl)oxy)-1-oxoisoindolin-2-yl)piperidine-2,6-dione]", "values": [{"measurement": "HbF Amax", "setting": "[1]", "value": 66.5, "unit": "%"}, {"measurement": "Dmax", "setting": "[2]; HEK-293T, read-out: % degradation of WIZ (100 − Amax)", "value": 76, "unit": "%"}, {"measurement": "remaining activity at 25 µM", "setting": "[2]; HEK-293T, read-out: WIZ Amax", "value": 24, "unit": "%"}, {"measurement": "DC50", "setting": "[2]; WIZ HiBit assay in 293T cells, about 18 hours, 10-point 5-fold dilution, top 25 μM", "value": 16, "unit": "nM"}, {"measurement": "DC50", "setting": "[2]; updated arithmatic mean over the number of repeats specified, assay of Example 89", "value": 16, "unit": "nM"}]}
